Results: ChEMBL document CHEMBL1201862, “PubChem BioAssay data set” (2004)
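Following 48 hours of exposure in 96-well plates, responses at five concentrations were used to interpolate endpoints linearly. Here, GI50 denotes the concentration required for 50% inhibition of growth.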 Active and inactive are the calls of the source. No stated cut-off is given here; in the data, active = GI50 up to about 1.1 µM and inactive = higher.

Legend:
Test in all cases: NCI-60 cell line screen, 48 h
786-0 = tested on: 786-0
A498 = tested on: A498
A549 = tested on: A549
ACHN = tested on: ACHN
BT-549 = tested on: BT-549
CAKI-1 = tested on: CAKI-1
COLO 205 = tested on: COLO 205
DU-145 = tested on: DU-145
EKVX = tested on: EKVX
HCC 2998 = tested on: HCC 2998
HCT-116 = tested on: HCT-116
HCT-15 = tested on: HCT-15
HL-60 = tested on: HL-60
HOP-62 = tested on: HOP-62
HOP-92 = tested on: HOP-92
HT-29 = tested on: HT-29
Hs-578T = tested on: Hs-578T
IGROV-1 = tested on: IGROV-1
K562 = tested on: K562
KM12 = tested on: KM12
LOX IMVI = tested on: LOX IMVI
M14 = tested on: M14
MCF7 = tested on: MCF7
MDA-MB-231 = tested on: MDA-MB-231
MDA-MB-435 = tested on: MDA-MB-435
MDA-N = tested on: MDA-N
Malme-3M = tested on: Malme-3M
NCI-H226 = tested on: NCI-H226
NCI-H23 = tested on: NCI-H23
NCI-H460 = tested on: NCI-H460
NCI-H522 = tested on: NCI-H522
NCI/ADR-RES = tested on: NCI/ADR-RES
OVCAR-3 = tested on: OVCAR-3
OVCAR-4 = tested on: OVCAR-4
OVCAR-5 = tested on: OVCAR-5
OVCAR-8 = tested on: OVCAR-8
PC-3 = tested on: PC-3
RPMI-8226 = tested on: RPMI-8226
RXF 393 = tested on: RXF 393
SF-268 = tested on: SF-268
SF-295 = tested on: SF-295
SF-539 = tested on: SF-539
SK-MEL-28 = tested on: SK-MEL-28
SK-MEL-2 = tested on: SK-MEL-2
SK-MEL-5 = tested on: SK-MEL-5
SK-OV-3 = tested on: SK-OV-3
SN12C = tested on: SN12C
SNB-19 = tested on: SNB-19
SNB-75 = tested on: SNB-75
SR = tested on: SR
SW-620 = tested on: SW-620
T47D = tested on: T47D
TK-10 = tested on: TK-10
U-251 = tested on: U-251
UACC-257 = tested on: UACC-257
UACC-62 = tested on: UACC-62
UO-31 = tested on: UO-31

## CC(N1CCOCC1)C(O)(c1ccccc1)c1ccccn1 (configuration not stated)
786-0
  GI50: > 100 µM (inactive)
A498
  GI50: 38.8 µM (inactive)
A549
  GI50: > 100 µM (inactive)
ACHN
  GI50: 52.8 µM (inactive)
BT-549
  GI50: > 100 µM (inactive)
CAKI-1
  GI50: > 100 µM (inactive)
COLO 205
  GI50: > 100 µM (inactive)
DU-145
  GI50: > 100 µM (inactive)
EKVX
  GI50: > 100 µM (inactive)
HCC 2998
  GI50: 0.0192 µM (active)
HCT-116
  GI50: > 100 µM (inactive)
HCT-15
  GI50: > 100 µM
HL-60
  GI50: 44.9 µM (inactive)
HOP-62
  GI50: > 100 µM (inactive)
HOP-92
  GI50: > 100 µM (inactive)
HT-29
  GI50: > 100 µM (inactive)
Hs-578T
  GI50: > 100 µM (inactive)
IGROV-1
  GI50: > 100 µM (inactive)
K562
  GI50: > 100 µM (inactive)
KM12
  GI50: > 100 µM (inactive)
LOX IMVI
  GI50: > 100 µM (inactive)
M14
  GI50: > 100 µM (inactive)
MCF7
  GI50: 41 µM (inactive)
MDA-MB-231
  GI50: > 100 µM (inactive)
MDA-MB-435
  GI50: > 100 µM (inactive)
MDA-N
  GI50: > 100 µM (inactive)
Malme-3M
  GI50: > 100 µM (inactive)
NCI-H226
  GI50: > 100 µM (inactive)
NCI-H23
  GI50: > 100 µM (inactive)
NCI-H460
  GI50: > 100 µM (inactive)
NCI-H522
  GI50: > 100 µM (inactive)
NCI/ADR-RES
  GI50: > 100 µM (inactive)
OVCAR-3
  GI50: > 100 µM (inactive)
OVCAR-4
  GI50: > 100 µM (inactive)
OVCAR-5
  GI50: > 100 µM (inactive)
OVCAR-8
  GI50: > 100 µM (inactive)
PC-3
  GI50: > 100 µM (inactive)
RPMI-8226
  GI50: > 100 µM (inactive)
RXF 393
  GI50: > 100 µM (inactive)
SF-268
  GI50: > 100 µM (inactive)
SF-295
  GI50: > 100 µM (inactive)
SF-539
  GI50: > 100 µM (inactive)
SK-MEL-28
  GI50: > 100 µM (inactive)
SK-MEL-2
  GI50: > 100 µM (inactive)
SK-MEL-5
  GI50: > 100 µM (inactive)
SK-OV-3
  GI50: > 100 µM (inactive)
SN12C
  GI50: > 100 µM (inactive)
SNB-19
  GI50: > 100 µM (inactive)
SNB-75
  GI50: > 100 µM (inactive)
SR
  GI50: > 100 µM (inactive)
SW-620
  GI50: > 100 µM (inactive)
T47D
  GI50: > 100 µM (inactive)
TK-10
  GI50: > 100 µM (inactive)
U-251
  GI50: > 100 µM (inactive)
UACC-257
  GI50: > 100 µM (inactive)
UACC-62
  GI50: 37.8 µM (inactive)
UO-31
  GI50: > 100 µM (inactive)
